The source made the active and inactive calls.
Legend:
Escherichia coli [1] = assay: microbe, parasite or virus in culture
[2] = viability of uninfected HEp-2 cells – cell-based, HTS, cytotoxicity control for RSV inhibitor project, dose response (AID 2410); assay type: functional; details: human respiratory syncytial virus
Vero [3] = assay: mammalian cell viability reduction – secondary assay, cytotoxicity control for West Nile virus antiviral project, dose response (AID 1650); assay type: functional; details: Chlorocebus sabaeus
Vero [4] = assay: cells; assay type: functional, cell-based; details: Chlorocebus sabaeus
Vero [5] = assay: cells; assay type: functional; details: Chlorocebus sabaeus
Escherichia coli [6] = assay: microbe, parasite or virus in culture; remark: listed apart in the source
[7] = Luminescence Cell-Based Dose Response to Identify Activators of 5'UTR Stem-Loop Driven Prion Protein mRNA Translation in H4-C Neuroglioblastoma Cells. [Related pubchem assays: 1829 (Project Summary), 1814 (Primary HTS)]; assay type: functional
H4 = assay: Luminescence Cell-Based Dose Response HTS to Identify Activators of 5'UTR Stem-Loop Driven Prion Protein mRNA Translation in H4 Neuroglioblastoma Cells. [Related pubchem assays: 1829 (Project Summary), 1814 (Primary HTS)]; assay type: functional; details: Homo sapiens
[8] = Luminescence Cell-Based Dose Response to Identify Activators of Luciferase Translation or Activity in H4-C Neuroglioblastoma Cells. [Related pubchem assays: 1829 (Project Summary), 1814 (Primary HTS)]; assay type: functional
[9] = Luminescence Cell-Based Dose Confirmation to Identify Activators of 5'UTR Stem-Loop Driven Alpha-Synuclein mRNA Translation in H4 Neuroglioblastoma Cells. [Related pubchem assays: 1829 (Project Summary), 1814 (Primary HTS)]; assay type: functional
HEK293 = assay: cells; assay type: functional, cell-based; details: Homo sapiens
[10] = molecular target: Nuclear receptor subfamily 0 group B member 1 (Homo sapiens, UniProt P51843); assay: Luminescence-based cell-based high throughput dose response assay for inhibitors of the orphan nuclear receptor subfamily 0, group B, member 1 (DAX1; NR0B1). [Related pubchem assays (depositor defined):AID504766, AID504790]; assay type: functional
Chain of Nuclear receptor subfamily 0 group B member 1 (P51843 whole entry): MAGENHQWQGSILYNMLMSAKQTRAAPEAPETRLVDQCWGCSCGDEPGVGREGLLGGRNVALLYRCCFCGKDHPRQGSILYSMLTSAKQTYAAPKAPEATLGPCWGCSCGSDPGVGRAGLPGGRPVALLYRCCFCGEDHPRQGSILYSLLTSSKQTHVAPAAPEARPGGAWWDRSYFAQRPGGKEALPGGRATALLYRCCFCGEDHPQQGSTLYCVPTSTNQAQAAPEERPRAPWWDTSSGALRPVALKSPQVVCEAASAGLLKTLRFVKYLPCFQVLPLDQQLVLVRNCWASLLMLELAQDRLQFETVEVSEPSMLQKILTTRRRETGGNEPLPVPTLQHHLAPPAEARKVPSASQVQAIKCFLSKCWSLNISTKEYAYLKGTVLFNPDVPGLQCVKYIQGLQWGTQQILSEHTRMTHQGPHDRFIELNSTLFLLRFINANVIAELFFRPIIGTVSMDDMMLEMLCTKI

Compound: CCCCOCC1CN(c2ccccc2)C(=O)CS1 (centres undefined)
- AC50 (Escherichia coli [1]): 20.9 µM (active)

Compound: CC1(C)COC(/C=C/c2cccc([N+](=O)[O-])c2)=N1
- CC50 [2]: 9.78 µM (active)
- CC50 (Vero [3]): 12.6 µM (active)
- IC50 (Vero [4]): 21.5 µM (active)
- CC50 (Vero [5]): 15.1 µM (active)

Compound: COc1ccc(C(=O)C2(C)N(O)C(C)C(c3cccs3)=[N+]2[O-])cc1 (centres undefined)
- AC50 (Escherichia coli [6]): > 380 µM (inactive)

Compound: Cc1ccccc1Nc1nc(N)nc(CSc2ccc(F)cc2)n1
- EC50 [7]: 0.343 µM (active)
- EC50 (H4): < 0.1 µM (active)
- EC50 [8]: 0.351 µM (active)
- EC50 [9]: 0.229 µM (active)
- IC50 (HEK293): > 67.5 µM (inactive)
- IC50 [10]: > 67.5 µM (inactive)

Compound: CC(=O)Nc1ccc(S(=O)(=O)N[C@@H](C)C(=O)OCC(=O)c2ccc(Br)s2)cc1
- IC50 (HEK293): > 67.5 µM (inactive)
- IC50 [10]: > 67.5 µM (inactive)
